Results published in ChEMBL document CHEMBL1155009, “7-Aminopyrazolo[1,5-a]pyrimidines as potent multitargeted receptor tyrosine kinase inhibitors” (J Med Chem, 2008).

How the values were obtained:
[1] = molecular target: T1, Vascular endothelial growth factor receptor 2 (Homo sapiens, UniProt P35968)
Description: Inhibition of KDR by HTRF assay

[2] = tested on: Mus musculus; test: Inhibition of estradiol-induced uterine edema in BALB/c mouse at 10 mg/kg, po administered 30 mins prior to 17-beta-estradiol challenge after 2 hrs; conditions: read-out: INH
[3] = molecular target: T1, Vascular endothelial growth factor receptor 2; test: Inhibition of human KDR phosphorylation expressed in mouse NIH3T3 cells by ELISA; assay type: cell-based
[4] = tested on: Mus musculus; test: Half life in CD1 mouse at 3 mg/kg, iv; assay type: ADME, organism-based; parameters: dose 3 mg/kg, route intravenous; conditions: in vivo
[5] = AUC in CD1 mouse at 3 mg/kg, iv; assay type: ADME, organism-based; parameters: dose 3 mg/kg, route intravenous; conditions: plasma
[6] = tested on: Mus musculus; test: Volume of distribution in CD1 mouse at 3 mg/kg, iv; assay type: ADME, organism-based; parameters: dose 3 mg/kg, route intravenous; conditions: in vivo
[7] = Cmax in CD1 mouse at 10 mg/kg, po; assay type: ADME, organism-based; parameters: dose 10 mg/kg, route oral; conditions: in vivo
[8] = AUC in CD1 mouse at 10 mg/kg, po; assay type: ADME, organism-based; parameters: dose 10 mg/kg, route oral; conditions: plasma
[9] = Oral bioavailability in CD1 mouse at 10 mg/kg; assay type: ADME, organism-based; conditions: in vivo

T1 sequence (P35968 whole entry): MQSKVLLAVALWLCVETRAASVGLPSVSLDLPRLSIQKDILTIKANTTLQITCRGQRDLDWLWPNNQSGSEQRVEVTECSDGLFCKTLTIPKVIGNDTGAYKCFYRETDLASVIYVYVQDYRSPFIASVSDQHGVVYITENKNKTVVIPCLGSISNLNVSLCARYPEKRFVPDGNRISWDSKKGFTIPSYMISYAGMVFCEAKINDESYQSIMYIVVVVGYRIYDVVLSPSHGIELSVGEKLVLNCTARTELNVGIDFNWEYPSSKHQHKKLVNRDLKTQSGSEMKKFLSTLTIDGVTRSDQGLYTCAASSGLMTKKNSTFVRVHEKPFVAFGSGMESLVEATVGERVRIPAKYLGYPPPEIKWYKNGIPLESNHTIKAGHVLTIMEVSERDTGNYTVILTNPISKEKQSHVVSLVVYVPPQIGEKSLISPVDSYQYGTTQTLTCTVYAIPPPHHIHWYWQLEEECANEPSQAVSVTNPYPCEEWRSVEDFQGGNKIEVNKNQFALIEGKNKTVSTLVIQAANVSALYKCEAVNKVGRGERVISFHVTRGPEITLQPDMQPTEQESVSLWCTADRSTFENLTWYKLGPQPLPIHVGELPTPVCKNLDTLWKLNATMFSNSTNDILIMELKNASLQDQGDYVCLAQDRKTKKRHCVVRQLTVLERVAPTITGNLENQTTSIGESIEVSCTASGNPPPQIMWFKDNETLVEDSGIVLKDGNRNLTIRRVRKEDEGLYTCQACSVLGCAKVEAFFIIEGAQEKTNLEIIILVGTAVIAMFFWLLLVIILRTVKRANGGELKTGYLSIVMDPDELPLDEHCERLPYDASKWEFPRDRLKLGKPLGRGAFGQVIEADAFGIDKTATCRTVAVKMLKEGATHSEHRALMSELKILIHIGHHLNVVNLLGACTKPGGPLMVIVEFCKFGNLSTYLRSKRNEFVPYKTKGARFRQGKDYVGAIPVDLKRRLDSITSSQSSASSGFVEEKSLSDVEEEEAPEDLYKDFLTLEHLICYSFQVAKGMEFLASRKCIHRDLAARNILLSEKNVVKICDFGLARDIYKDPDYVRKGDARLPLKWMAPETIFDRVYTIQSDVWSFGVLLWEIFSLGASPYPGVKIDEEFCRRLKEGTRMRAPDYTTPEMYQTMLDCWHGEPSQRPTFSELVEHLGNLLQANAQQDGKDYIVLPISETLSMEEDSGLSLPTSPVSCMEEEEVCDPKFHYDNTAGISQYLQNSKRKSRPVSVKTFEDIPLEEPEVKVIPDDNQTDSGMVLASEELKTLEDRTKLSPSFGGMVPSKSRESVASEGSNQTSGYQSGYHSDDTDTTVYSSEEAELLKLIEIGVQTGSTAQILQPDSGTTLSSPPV

IC50 [1] [nM] | SMILES | further results
930 | Cc1cccc(NC(=O)Nc2ccc(-c3cnc4c(C#N)cnn4c3N)cc2)c1 | 
> 12500 | Cc1ccccc1NC(=O)Nc1ccc(-c2cnc3c(Br)cnn3c2N)cc1 | 
810 | Cc1ccc(NC(=O)Nc2ccc(-c3cnc4c(Br)cnn4c3N)cc2)cc1 | 
10000 | Cc1cccc(NC(=S)Nc2ccc(-c3cnc4ccnn4c3N)cc2)c1 | 
> 12500 | Cc1cccc(NC(=O)Nc2ccc(-c3cnc4c(Br)cnn4c3)cc2)c1 | 
6100 | COc1ccc(-c2cnc3c(-c4ccsc4)cnn3c2N)cc1 | 
 | Cn1cc(-c2ccn3c(N)c(-c4ccc(NC(=O)Nc5cccc(Cl)c5)cc4)cnc23)cn1 | inhibition in vivo at 10 mg/kg [2]: 27%
 | Cn1cc(-c2ccn3c(N)c(-c4ccc(NC(=O)Nc5cc(C(F)(F)F)ccc5F)cc4)cnc23)cn1 | inhibition in vivo at 10 mg/kg [2]: 45%
> 12500 | Cc1cccc(NC(=O)Nc2ccc(-c3cnc4cc(-c5ccccc5)nn4c3N)cc2)c1 | 
790 | Cc1cccc(NC(=O)Nc2ccc(-c3cnc4c(C(=O)N5CCN(C)CC5)cnn4c3N)cc2)c1 | 
100 | CNC(=O)c1cnn2c(N)c(-c3ccc(NC(=O)Nc4cccc(C)c4)cc3)cnc12 | 
1600 | Nc1c(-c2ccc(NC(=O)Nc3ccccc3)cc2)cnc2c(Br)cnn12 | 
2000 | Cc1cccc(NC(=O)Nc2ccc(-c3cnc4c(C(=O)O)cnn4c3N)cc2)c1 | 
4 | Cc1cccc(NC(=O)Nc2ccc(-c3cnc4c(-c5cnn(C)c5)cnn4c3N)cc2)c1 | IC50 [3]: 0.7 nM; inhibition in vivo at 10 mg/kg [2]: 49%; t1/2 [4]: 15 min; AUC [5]: 1800 ng·h/mL; Vd [6]: 1.4 L/kg; Cmax [7]: 360 nM; AUC [8]: 810 ng·h/mL; bioavailability [9]: 14%
74 | Cc1ccc(F)c(NC(=O)Nc2ccc(-c3cnc4ccnn4c3N)cc2)c1 | 
6600 | Cc1cccc(NC(=O)Nc2cccc(-c3cnc4ccnn4c3N)c2)c1 | 
> 12500 | Nc1ccc(-c2cnc3c(Br)cnn3c2N)cc1 | 
> 12500 | Nc1c(-c2ccc(NC(=O)c3ccccc3)cc2)cnc2c(Br)cnn12 | 
> 12500 | Nc1c(-c2ccccc2)cnc2c(Br)cnn12 | 
3500 | Cc1cccc(NC(=O)Nc2ccc(-c3cnc4cc(C)nn4c3N)cc2)c1 | 
 | Cn1cc(-c2ccn3c(N)c(-c4ccc(NC(=O)Nc5ccc(F)c(C(F)(F)F)c5)cc4)cnc23)cn1 | inhibition in vivo at 10 mg/kg [2]: < 15%
500 | CCN(CC)CCNC(=O)c1cnn2c(N)c(-c3ccc(NC(=O)Nc4cccc(C)c4)cc3)cnc12 | 
44 | Nc1c(-c2ccc(NC(=O)Nc3cccc(Cl)c3)cc2)cnc2ccnn12 | 
> 12500 | COc1ccc(-c2cnc3c(Br)cnn3c2N)cc1 | 
